Experiment: in vitro
Settings: human, hek293t cells

Structure (SMILES) | viability at 48 h, 25 µM [%]
CC(Cl)C(=O)NC(c1cc(Cl)ccc1Cl)C1CCOC1 (centres unmarked) [7-K21, 2-chloro-N-[(2,5-dichlorophenyl)(oxolan-3-yl)methyl]propanamide] | 87.9
C=CC(=O)N1CCC(C(=O)Nc2ccc3c(c2)CCN3C(N)=O)CC1 [3-E16, 5-[1-(prop-2-enoyl)piperidine-4-amido]-2,3-dihydro-1H-indole-1-carboxamide] | 101
Cc1ccccc1CC(C)NC(=O)CCl (centres unmarked) [6-C06, 2-chloro-N-[1-(2-methylphenyl)propan-2-yl]acetamide] | 75.4
CC(Cl)C(=O)NC[C@H]1CCCN(C2CC2)[C@@H]1c1ccnn1C (mixture of isomers) [6-P20, rac-2-chloro-N-{[(2R,3S)-1-cyclopropyl-2-(1-methyl-1H-pyrazol-5-yl)piperidin-3-yl]methyl}propanamide] | 101
CN(CC(=O)Nc1c(Cl)cccc1Cl)C(=O)CCl [6-M05, 2-chloro-N-{[(2,6-dichlorophenyl)carbamoyl]methyl}-N-methylacetamide] | 2.21
COc1ccc2[nH]c(C)c(C(=O)CCl)c2c1 [10-L05, 2-chloro-1-(5-methoxy-2-methyl-1H-indol-3-yl)ethan-1-one] | 14.8
N#CC(=Cc1cnc(-c2ccccc2)nc1)C(=O)NCc1ccco1 [9-M14, 2-cyano-N-[(furan-2-yl)methyl]-3-(2-phenylpyrimidin-5-yl)prop-2-enamide] | 143
CSc1ccccc1NC(=O)C(C)Cl (centres unmarked) [4-M12, 2-chloro-N-[2-(methylsulfanyl)phenyl]propanamide] | 95.2
Cc1cccc(NC(=O)C(C#N)=Cc2ccc(F)cc2)c1 [9-E12, 2-cyano-3-(4-fluorophenyl)-N-(3-methylphenyl)prop-2-enamide] | 90.9
O=C(Nc1cccc(-c2nnco2)c1)N1CCSSCC1 [10-P09, N-[3-(1,3,4-oxadiazol-2-yl)phenyl]-1,2,5-dithiazepane-5-carboxamide] | 116
O=C(CCl)N(Cc1ccccc1)Cc1ccco1 [5-F22, N-benzyl-2-chloro-N-[(furan-2-yl)methyl]acetamide] | 0.693
CC(Cl)C(=O)N1CCC(c2cc3ccccc3[nH]2)C1 (centres unmarked) [7-O12, 2-chloro-1-[3-(1H-indol-2-yl)pyrrolidin-1-yl]propan-1-one] | 82.5
O=C(CCl)Cc1cccc(F)c1F [10-K17, 1-chloro-3-(2,3-difluorophenyl)propan-2-one] | 33.7
C=CC(=O)N1CC(NC(=O)c2ccoc2CC)C(C)(C)C1 (centres unmarked) [1-L22, N-[4,4-dimethyl-1-(prop-2-enoyl)pyrrolidin-3-yl]-2-ethylfuran-3-carboxamide] | 71.3
CC(Cl)C(=O)NC(C)c1nc(Cc2ccccc2)no1 (centres unmarked) [7-B19, N-[1-(3-benzyl-1,2,4-oxadiazol-5-yl)ethyl]-2-chloropropanamide] | 79.9
O=C1NC(=O)c2cc(NC(=O)N3CCSSCC3)ccc21 [10-K22, N-(1,3-dioxo-2,3-dihydro-1H-isoindol-5-yl)-1,2,5-dithiazepane-5-carboxamide] | 98.8
N#CC(=Cc1cccc(Cl)c1)C(=O)Nc1ccccc1C(F)(F)F [8-J13, 3-(3-chlorophenyl)-2-cyano-N-[2-(trifluoromethyl)phenyl]prop-2-enamide] | 101
CC(Cl)C(=O)NCC1CN(c2ccc(Cl)cc2)CCO1 (centres unmarked) [6-F07, 2-chloro-N-{[4-(4-chlorophenyl)morpholin-2-yl]methyl}propanamide] | 101
COc1ccc(C2CCCN2C(=O)CCl)c(OC)c1 (centres unmarked) [4-P22, 2-chloro-1-[2-(2,4-dimethoxyphenyl)pyrrolidin-1-yl]ethan-1-one] | 0.348
CC(Cl)C(=O)NC1CC(=O)N(Cc2ccccc2C(F)(F)F)C1 (centres unmarked) [6-J19, 2-chloro-N-(5-oxo-1-{[2-(trifluoromethyl)phenyl]methyl}pyrrolidin-3-yl)propanamide] | 108

— PMC11995724, “Antibiotic target discovery by integrated phenotypic and activity-based profiling of electrophilic fragments” (Cell chemical biology, 2025)
